Publication PMC11111691, “Cystine-knot peptide inhibitors of HTRA1 bind to a cryptic pocket within the active site region” (Nature Communications, 2024)
Positions of bridges follow the written chain, without caps; N, C: chain ends. Residues, ends and D or L forms follow the SMILES beside them.

How the values were obtained:
HeLa cells = test: Cell toxicity assay (CellTiter-Glo), HeLa; assay type: cell-based
Protocol: (§1) reduction at the highest CKP concentration of 50 µM after 72 h (see results below). The absence of cell toxicity is likely due to the inability of the CKPs to penetrate cell membranes, which was experimentally determined in response to another reviewer. Due to space limitations we have not […]
(§2) Protocol of cell toxicity assay (Figure above):
(§3) HeLa cells or C32 melanoma cells were passaged in DMEM media supplemented with 10% FBS, 1% pen-strep and 1x Glutamax using standard culture conditions (5% CO2, 90% humidity at 37°C). At approximately 95% confluence cells were trypsinized, seeded onto 96-well plates (Corning) at 10,000 cells/well and grown for 24 h. Cells were then incubated with the CKPs 3B3, 1D3-ENI and 1G10-ENI (0, 0.6, 1.9, 5.6, 16.7 and 50 µM) at 37°C for 24 h or for 72h. As a positive control we used staurosporine (STS; 1µM). Cell viability was measured using the CellTiter-Glo luminescent cell viability assay (Promega) on an Envision Multilabel plate reader. Average of at least three independent experiments ± S.D. were plotted in Prism 10. Two-way ANOVA was performed on each dataset and compared to no drug samples and no significant viability reductions were observed, except for some treatments at the […]

HTRA4^PD/PDZ-Y200A = target: T1, HTRA4^PD/PDZ-Y200A (Homo sapiens, UniProt P83105, Y200A); test: H2-OPT enzyme assay, chimeric HTRA4^PD/PDZ-Y200A; assay type: biochemical; conditions: 1 µM HTRA4^PD/PDZ-Y200A, 10 µM 3B3, H2-OPT; read-out: Inhibition (reduction of enzyme activity) of HTRA4^PD/PDZ-Y200A
T1 construct: HTRA4 (HTRA4^PD/PDZ; G153-N476); made in house; host or cells: E. coli
T1 sequence (P83105 153-476 Y200A): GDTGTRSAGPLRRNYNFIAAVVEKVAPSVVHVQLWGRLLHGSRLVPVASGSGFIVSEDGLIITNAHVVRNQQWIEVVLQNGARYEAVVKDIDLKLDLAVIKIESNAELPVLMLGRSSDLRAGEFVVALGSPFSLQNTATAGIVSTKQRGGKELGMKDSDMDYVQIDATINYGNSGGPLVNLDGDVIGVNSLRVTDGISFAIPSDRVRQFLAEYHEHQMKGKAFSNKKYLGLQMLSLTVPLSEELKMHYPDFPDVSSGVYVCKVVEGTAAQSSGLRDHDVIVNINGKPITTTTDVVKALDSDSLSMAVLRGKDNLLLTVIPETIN
Excerpt: The protease domains of human HTRA1 (HTRA1^PD; D161-K379) and mouse HTRA1 (mHTRA1^PD; D161-K379) contained an N-terminal His6 tag followed by a TEV protease cleavage sequence as described recently. The chimeric HTRA1^PD-A202Y was made by introducing an A202Y mutation to the human HTRA1^PD construct. […] The protease-PDZ domains of human HTRA3 (HTRA3^PD/PDZ; L130-M453) and HTRA4 (HTRA4^PD/PDZ; G153-N476) contained a C-terminal thrombin cleavage sequence followed by a His6 tag[44]. The chimeric HTRA4^PD/PDZ-Y200A was made by introducing a Y200A mutation to the HTRA4^PD/PDZ construct. These constructs were expressed in E. coli and purified as described[38],[44],[47]. […] The purity of the trimeric HTRA proteins after size exclusion chromatography was assessed by SDS-PAGE and LC/MS. […]
Assays with the fluorescence-quenched synthetic substrate Mca-IRRVSYSFK(Dnp)K (H2-OPT)[38],[60] were carried out essentially as described. […] The kinetics of substrate cleavage was measured at 37 °C on a SpectraMax M5 microplate reader with excitation of 328 nm and emission of 393 nm. The determined initial rates of cleavage were expressed as percent of control (DMSO control) after subtracting the baseline rates (without enzyme). IC50 values were determined by Sigmoidal 4PL modeling of multiple data points from serial dilutions of CKPs using Prism 9 software (GraphPad). […]

C32 melanoma cells = test: Cell toxicity assay (CellTiter-Glo), C32; assay type: cell-based, human; conditions: 0.6-50 µM CKP, 24 h and 72 h, at least three independent experiments
Protocol: as §1, §2, §3

CC[C@H](C)[C@H](NC(=O)[C@@H]1CCCN1C(=O)[C@H](CC(=O)O)NC(=O)[C@H](C)NC(=O)[C@@H](N)Cc1c[nH]cn1)C(=O)N[C@H]1CSSC[C@@H]2NC(=O)[C@H](Cc3ccccc3)NC(=O)[C@H](Cc3c[nH]c4ccccc34)NC(=O)[C@H](C)NC(=O)CNC(=O)[C@H](CO)NC(=O)[C@@H]3CSSC[C@@H](C(=O)NCC(=O)N4CCC[C@H]4C(=O)N[C@@H](Cc4ccc(O)cc4)C(=O)N[C@H](C(=O)NCC(N)=O)C(C)C)NC(=O)[C@H](CO)NC(=O)[C@H](Cc4c[nH]c5ccccc45)NC(=O)[C@H]([C@@H](C)O)NC(=O)[C@H](C)NC(=O)[C@H](Cc4ccc(O)cc4)NC(=O)[C@H](Cc4ccc(O)cc4)NC(=O)[C@H](CSSC[C@H](NC(=O)[C@@H]4CCCN4C(=O)[C@H](CCCCN)NC(=O)[C@H](CC(N)=O)NC1=O)C(=O)N[C@@H](CCCCN)C(=O)N[C@@H]([C@@H](C)O)C(=O)N[C@@H](Cc1c[nH]cn1)C(=O)N[C@@H](CC(=O)O)C(=O)N[C@@H](CC(=O)O)C(=O)N3)NC(=O)[C@H](C)NC(=O)[C@H](CCC(N)=O)NC2=O [3B3] (H-HADPICNKPCKTHDDCSGAWFCQACYYATWSCGPYVG-NH2; disulfide 6-22, 10-25, 16-32)
Viability reduction, HeLa cells, 24 h (HeLa cells; 50 µM CKP, 24 h): 9% | Viability reduction, HeLa cells, 72 h (HeLa cells; 50 µM CKP, 72 h): 13% | Cell viability, HeLa cells (HeLa cells; 0.6-50 µM CKP, 24 h and 72 h, at least three independent experiments): did not appreciably affect cell viability | inhibition at 10 µM (HTRA4^PD/PDZ-Y200A): 57% | Cell viability, C32 melanoma cells (C32 melanoma cells): did not appreciably affect cell viability
